Experimental data reported in patent publication US9770170B2, “Methods for diagnosing, treating, and monitoring chronic inflammatory response syndrome” (priority 2012, dated 2017).

Columns and labels:
[1] = system: human volunteers; assay: Initial use of low dose VIP by nasal instillation (earlier trials)
Excerpt: (§1) 3A. Treatment: Human research approval for this study was provided by Copernicus Group IRB, Cary, N.C. […] Further, certain patients were excluded from the trial for the following reason. […] Patients with these findings were excluded from the formal replacement trial.

[2] = system: patients with clinically-confirmed CIRS-WDB; assay: Open-label VIP replacement trial: physician recorded symptoms; format: in vivo, human; settings: for SX (symptoms) mean value: Control 2.9, Base 29.8, AC2 17.8
Excerpt: as §1
(§2) All patients enrolled in the trial were confirmed to be exposed to WDB by observation of illness acquisition solely following water intrusion followed by either (1) visible microbial growth; (2) specification of molds by QPCR DNA testing; or (3) musty smells. All patients met the case criteria established by the GAO (US GAO 2008). Patients were known to the clinic with a 36-month mean duration of prior treatment following exposure to WDB.
(§3) For the experimental protocol, subjects self-administered 50 mcg VIP (Aviptadil; Bachem AG, Switzerland) four times a day via nasal aerosol and returned to the clinic to review symptoms and clinical course, and undergo interval physical exam and laboratory exam at scheduled intervals. Clinical data were collected before any treatments, or baseline (BASE); after all other treatments and before VIP (AC2); after 12 months of VIP (12M); and after 18 months of VIP (18M). Data collection included physician recorded symptoms in a medical history (Table 2); levels of VIP, MSH, C4a, TGF beta-1, VEGF, MMP9, estradiol, testosterone, 25-0H vitamin D, lipase, CBC and CMP. Measurement of CD4+CD25+T regulatory (Treg) cells was not available at BASE; Treg testing was performed at AC2 and 18 month time periods. Laboratory testing for all analytes was performed by high complexity CLIA-certified labs including LabCorp and Quest Diagnostics. All data were compared to either established normative values or values from prior testing of healthy control populations (N=850) performed at this clinic. Data were analyzed by two-sample T-tests for each of two study time points and one-sample T-tests that compared the specified data to the corresponding historical control values. A Bonferroni correction to the p-values was done to control the experiment-wise error rate. A p value of <0.001 was chosen as the determinant of significance for the study.

[3] = system: CD4+CD25+ Treg cells; assay: Flow cytometry of CD4+CD25+ T regulatory (Treg) cells; format: in vivo, human; settings: 18 month versus AC2, increase from a mean of 8.9
Excerpt: CD4^+ CD25^+ Treg cells in CIRS patients can be measured by flow cytometry. CD4^+ CD25^+ Treg cells mature in response to an inflammatory stimulation, and in particular, in response to increasing levels of TGF-β1. Matured CD4^+ CD25^+ Treg cells migrate to tissues to suppress inflammation and autoimmunity. However, if there is a pre-existing inflammatory response ongoing in tissues, CD4^+ CD25^+ Treg cells may turn into autoreactive T cells. Therefore, the determination of CD4^+ CD25^+ Treg cells in blood as well as in tissues may be helpful in assessing the status of inflammation in CIRS patients.

[4] = system: patients with clinically-confirmed CIRS-WDB; assay: Open-label VIP replacement trial: laboratory parameters (CLIA labs); settings: for Estra-M (estradiol in males) mean value: Control 23.1, Base 36, AC2 30.3; for VIP level mean value: Control 28.9, Base 9.3, AC2 14.4; for Estra-F (estradiol in females) mean value: Control 29.8, Base 28, AC2 26.6; for Lipase mean value: Control 30.1, Base 24.2, AC2 30.8; for MSH mean value: Control 37.2, Base 9.4, AC2 16.8; for VIT D (25-OH vitamin D) mean value: Control 38.4, Base 19.4, AC2 24.1; for VEGF mean value: Control 65, Base 61, AC2 95.3; for Test-F (testosterone in females) mean value: Control 282, Base 20, AC2 18.9; for MMP-9 mean value: Control 332, Base 628, AC2 358; for Test-M (testosterone in males) mean value: Control 415, Base 298.8, AC2 293.5; for TGF (TGF beta-1) mean value: Control 2380, Base 12579, AC2 13015; for C4a mean value: Control 2830, Base 8346, AC2 4662
Excerpt: as §1, §2, §3

[5] = system: patients with clinically-confirmed CIRS-WDB; assay: Open-label VIP replacement trial: safety and tolerability
Excerpt: as §3

[6] = system: patients with clinically-confirmed CIRS-WDB; assay: Stress echocardiography, pulmonary artery systolic pressure (PASP) in exercise; format: in vivo, human; settings: all subjects, within two months; entry criterion rise exceeding 8 mm Hg versus resting PASP
Excerpt: Entry criteria also included a rise in pulmonary artery systolic pressure (PASP) in exercise as measured by stress echocardiography that exceeded 8 mm Hg as compared to resting PASP. Standard Bruce protocols were employed during stress echocardiography testing. […] All patients achieved target heart rate; none developed ischemic changes on EKG or chest pain during stress testing.

[7] = initial use of low dose VIP by nasal instillation

CC[C@H](C)[C@H](NC(=O)[C@H](CO)NC(=O)[C@H](CC(N)=O)NC(=O)[C@H](CC(C)C)NC(=O)[C@H](Cc1ccc(O)cc1)NC(=O)[C@H](CCCCN)NC(=O)[C@H](CCCCN)NC(=O)[C@@H](NC(=O)[C@H](C)NC(=O)[C@H](CCSC)NC(=O)[C@H](CCC(N)=O)NC(=O)[C@H](CCCCN)NC(=O)[C@H](CCCNC(=N)N)NC(=O)[C@H](CC(C)C)NC(=O)[C@H](CCCNC(=N)N)NC(=O)[C@@H](NC(=O)[C@H](Cc1ccc(O)cc1)NC(=O)[C@H](CC(N)=O)NC(=O)[C@H](CC(=O)O)NC(=O)[C@@H](NC(=O)[C@H](Cc1ccccc1)NC(=O)[C@@H](NC(=O)[C@H](C)NC(=O)[C@H](CC(=O)O)NC(=O)[C@H](CO)NC(=O)[C@@H](N)Cc1c[nH]cn1)C(C)C)[C@@H](C)O)[C@@H](C)O)C(C)C)C(=O)N[C@@H](CC(C)C)C(=O)N[C@@H](CC(N)=O)C(N)=O [VIP, Aviptadil]
Safety of low dose VIP by nasal instillation ([1]; human volunteers, initial use): shown to be safe | Effect on pulmonary artery responses to exercise [1, 7]: blunted accentuated pulmonary artery responses to exercise | Effect on symptoms [1, 7]: prompt reduction in symptoms | Quality of life ([2]; 20 patients, open-label trial): enhanced quality of life | SX (symptoms) mean value ([2]; after 12 months of VIP, 50 mcg four times a day nasal aerosol): 5.5 | SX (symptoms) mean value ([2]; after 18 months of VIP): 3.4 | Symptom reduction versus controls ([2]; all treated patients): Symptom reduction to equal those of controls | CD4+CD25+ Treg cells, mean [3]: 22.5 | Inflammatory parameters versus controls ([4]; VIP nasal spray, open-label trial): not significantly different from controls | Estra-M (estradiol in males) mean value ([4]; after 12 months of VIP): 27.7 | VIP level mean value ([4]; after 12 months of VIP): 12.3 | Estra-F (estradiol in females) mean value ([4]; after 12 months of VIP): 27.8 | Lipase mean value ([4]; after 12 months of VIP): 30.7 | MSH mean value ([4]; after 12 months of VIP): 17.3 | VIT D (25-OH vitamin D) mean value ([4]; after 12 months of VIP): 38.3 | VEGF mean value ([4]; after 12 months of VIP): 73.4 | Test-F (testosterone in females) mean value ([4]; after 12 months of VIP): 22.6 | MMP-9 mean value ([4]; after 12 months of VIP): 302 | Test-M (testosterone in males) mean value ([4]; after 12 months of VIP): 546.7 | TGF (TGF beta-1) mean value ([4]; after 12 months of VIP): 5359 | C4a mean value ([4]; after 12 months of VIP): 5679 | Estra-M (estradiol in males) mean value ([4]; after 18 months of VIP): 22.8 | VIP level mean value ([4]; after 18 months of VIP): 16.6 | Estra-F (estradiol in females) mean value ([4]; after 18 months of VIP): 28.9 | Lipase mean value ([4]; after 18 months of VIP): 27.9 | MSH mean value ([4]; after 18 months of VIP): 18.2 | VIT D (25-OH vitamin D) mean value ([4]; after 18 months of VIP): 39.3 | VEGF mean value ([4]; after 18 months of VIP): 66.2 | Test-F (testosterone in females) mean value ([4]; after 18 months of VIP): 25.2 | MMP-9 mean value ([4]; after 18 months of VIP): 290 | Test-M (testosterone in males) mean value ([4]; after 18 months of VIP): 511.5 | TGF (TGF beta-1) mean value ([4]; after 18 months of VIP): 4040 | C4a mean value ([4]; after 18 months of VIP): 3306 | Patient values versus controls by the end of the trial (symptoms, MSH, VIP, MMP9, C4a, TGF-β1, 25-OH Vitamin D, testosterone in males) ([4]; end of the trial, baseline differed from controls at p<0.01): not statistically different from controls, except for VIP and MSH | Tolerability ([5]; 18 month study, 20 patients, nasal aerosol): tolerated the drug well | Changes in CBC and CMP ([5]; during the trial): No changes | Dropouts due to adverse effects ([5]; over the course of the 18 month study): no dropouts due to adverse effects | Elevated lipase, cases ([5]; resolved without cessation of use of VIP): One patient had a transient elevated level of lipase without abdominal pain | Lipase levels during the trial ([5]; whole cohort): did not rise | Elevated PASP in stress exercise testing reduced to [6]: < 8 mm Hg
